Data as given in ChEMBL document CHEMBL6115027, “Bisboronic Ester-Enabled Redox-Targeted Cancer Therapy: A Cascade ROS Consumption Approach for Efficient Elimination of Cancer Cells” (J Med Chem, 2025).
The source made the active and inactive calls. The rule behind the calls is not given here.

What was measured:
[1] = system: HeLa; assay: Cytotoxicity against human HeLa cells assessed as reduction in cell viability incubated for 24 hrs by CCK-8 assay; type: functional, cell-based
[2] = system: HeLa; assay: Induction of ROS generation in human HeLa cells assessed as increase in ROS level incubated for 1 to 36 hrs by DCFH-DA staining based confocal imaging analysis; type: functional, cell-based; conditions: time 1-36 hrs
[3] = system: HeLa; assay: Induction of apoptosis in human HeLa cells assessed as viable cells at 13.6 uM incubated for 48 hrs by Annexin V-Alexa fluor 647 and propidium iodide staining based flow cytometry relative to control; type: functional; conditions: read-out: Activity
[4] = system: HeLa; assay: Induction of autophagy in human HeLa cells assessed as change in caspase 1 activity at 5.44 uM incubated for 48 hrs by MDC staining based flow cytometric analysis (reference value: 0.06); type: functional
[5] = system: HeLa; assay: Induction of autophagy in human HeLa cells assessed as change in caspase 4 activity at 10.88 uM incubated for 48 hrs at wavelength of 405 nm by MDC staining based flow cytometric analysis (reference value: 0.052); type: functional
[6] = system: HeLa; assay: Induction of apoptosis in human HeLa cells assessed as late apoptotic cells at 6.8 uM incubated for 48 hrs by Annexin V-Alexa fluor 647 and propidium iodide staining based flow cytometry relative to control; type: functional
[7] = system: HeLa; assay: Induction of apoptosis in human HeLa cells assessed as necrotic cells at 13.6 uM incubated for 48 hrs by Annexin V-Alexa fluor 647 and propidium iodide staining based flow cytometry relative to control; type: functional
[8] = system: HeLa; assay: Induction of apoptosis in human HeLa cells assessed as late apoptotic cells at 27.2 uM incubated for 48 hrs by Annexin V-Alexa fluor 647 and propidium iodide staining based flow cytometry relative to control; type: functional
[9] = system: HeLa; assay: Induction of autophagy in human HeLa cells assessed as change in caspase 1 activity at 87.04 uM incubated for 48 hrs by MDC staining based flow cytometric analysis (reference value: 0.06); type: functional
[10] = system: HeLa; assay: Induction of apoptosis in human HeLa cells assessed as early apoptotic cells at 27.2 uM incubated for 48 hrs by Annexin V-Alexa fluor 647 and propidium iodide staining based flow cytometry relative to control; type: functional
[11] = system: HeLa; assay: Induction of autophagy in human HeLa cells assessed as change in caspase 1 activity at 21.76 uM incubated for 48 hrs by MDC staining based flow cytometric analysis (reference value: 0.06); type: functional
[12] = system: HeLa; assay: Induction of apoptosis in human HeLa cells assessed as viable cells at 27.2 uM incubated for 48 hrs by Annexin V-Alexa fluor 647 and propidium iodide staining based flow cytometry relative to control; type: functional; conditions: read-out: Activity
[13] = system: HeLa; assay: Induction of ROS generation in human HeLa cells assessed as increase in ROS level incubated for 48 hrs by DCFH-DA staining based confocal imaging analysis; type: functional, cell-based
[14] = system: HeLa; assay: Induction of autophagy in human HeLa cells assessed as change in caspase 4 activity at 21.76 uM incubated for 48 hrs at wavelength of 405 nm by MDC staining based flow cytometric analysis (reference value: 0.052); type: functional
[15] = system: HeLa; assay: Induction of apoptosis in human HeLa cells assessed as late apoptotic cells at 13.6 uM incubated for 48 hrs by Annexin V-Alexa fluor 647 and propidium iodide staining based flow cytometry relative to control; type: functional
[16] = system: HeLa; assay: Induction of apoptosis in human HeLa cells assessed as necrotic cells at 27.2 uM incubated for 48 hrs by Annexin V-Alexa fluor 647 and propidium iodide staining based flow cytometry relative to control; type: functional
[17] = system: HeLa; assay: Induction of autophagy in human HeLa cells assessed as change in caspase 4 activity at 43.52 uM incubated for 48 hrs at wavelength of 405 nm by MDC staining based flow cytometric analysis (reference value: 0.052); type: functional
[18] = system: HeLa; assay: Induction of autophagy in human HeLa cells assessed as change in caspase 4 activity at 5.44 uM incubated for 48 hrs at wavelength of 405 nm by MDC staining based flow cytometric analysis (reference value: 0.052); type: functional
[19] = system: T-24; assay: Cytotoxicity against human T24 cells assessed as reduction in cell viability incubated for 24 hrs by CCK-8 assay; type: functional, cell-based; conditions: T-24, 24 h
[20] = system: HeLa; assay: Induction of apoptosis in human HeLa cells assessed as viable cells at 6.8 uM incubated for 48 hrs by Annexin V-Alexa fluor 647 and propidium iodide staining based flow cytometry relative to control; type: functional; conditions: read-out: Activity
[21] = system: HeLa; assay: Induction of apoptosis in human HeLa cells assessed as early apoptotic cells at 13.6 uM incubated for 48 hrs by Annexin V-Alexa fluor 647 and propidium iodide staining based flow cytometry relative to control; type: functional
[22] = system: HeLa; assay: Induction of autophagy in human HeLa cells assessed as change in caspase 1 activity at 10.88 uM incubated for 48 hrs by MDC staining based flow cytometric analysis (reference value: 0.06); type: functional
[23] = system: HeLa; assay: Induction of apoptosis in human HeLa cells assessed as early apoptotic cells at 6.8 uM incubated for 48 hrs by Annexin V-Alexa fluor 647 and propidium iodide staining based flow cytometry relative to control; type: functional
[24] = system: HeLa; assay: Induction of autophagy in human HeLa cells assessed as change in caspase 1 activity at 43.52 uM incubated for 48 hrs by MDC staining based flow cytometric analysis (reference value: 0.06; type: functional
[25] = system: HeLa; assay: Induction of apoptosis in human HeLa cells assessed as necrotic cells at 6.8 uM incubated for 48 hrs by Annexin V-Alexa fluor 647 and propidium iodide staining based flow cytometry relative to control; type: functional
[26] = system: HeLa; assay: Induction of pyroptosis in human HeLa cells at 10.88 to 43.52 uM; type: functional, cell-based; conditions: dose 10.88-43.52 µM
[27] = system: HeLa; assay: Induction of autophagy in human HeLa cells assessed as change in caspase 4 activity at 87.04 uM incubated for 48 hrs at wavelength of 405 nm by MDC staining based flow cytometric analysis (reference value: 0.052); type: functional
[28] = Reactivity of compound assessed as consumption of H2O2 by measuring phenol intermediate formation after 1 hr relative to control; type: physicochemical

Work on `CC(C)(C)c1cc(B2OC(C)(C)C(C)(C)O2)cc(-c2cc(B3OC(C)(C)C(C)(C)O3)cc(C(C)(C)C)c2)c1` yielded an IC50 [1] of 0.9 µM.

Molecule `CC1(C)OB(c2cc(F)ccc2CCc2ccc(F)cc2B2OC(C)(C)C(C)(C)O2)OC1(C)C` has an IC50 [1] of 1.8 µM.

In the case of `CC1(C)OB(c2cc(C(=O)Oc3ccc(-c4ccccc4)cc3)cc(-c3cc(B4OC(C)(C)C(C)(C)O4)cc(C(=O)Oc4ccc(-c5ccccc5)cc4)c3)c2)OC1(C)C`, the IC50 [1] is reported as 0.7 µM.

With `COc1ccc(-c2ccc(OC)c(B3OC(C)(C)C(C)(C)O3)c2)cc1B1OC(C)(C)C(C)(C)O1` the IC50 [1] was 0.83 µM.

Molecule `CC1(C)OB(c2ccc(-c3ccc(-c4ccc(-c5ccc(B6OC(C)(C)C(C)(C)O6)cc5)cc4)cc3)cc2)OC1(C)C` has an IC50 [1] of 2.27 µM.

`CC1(C)OB(c2ccc(Cc3ccc(B4OC(C)(C)C(C)(C)O4)cc3)cc2)OC1(C)C` gave an IC50 [1] of 3.15 µM.

`CC1(C)OB(c2ccc(-c3ccc(B4OC(C)(C)C(C)(C)O4)c(F)c3)cc2F)OC1(C)C` showed an IC50 [1] of 2.6 µM.

With `CC1(C)COB(c2ccc(CCc3ccc(B4OCC(C)(C)CO4)cc3)cc2)OC1` the IC50 [1] was 0.87 µM.

`Cc1cc(B2OC(C)(C)C(C)(C)O2)cc(-c2cc(C)cc(B3OC(C)(C)C(C)(C)O3)c2)c1` gave an IC50 [1] of 0.79 µM.

Work on `CC1(C)OB(c2cccc(CCc3cccc(B4OC(C)(C)C(C)(C)O4)c3F)c2F)OC1(C)C` yielded an IC50 [1] of 11.8 µM.

`CC1(C)COB(c2cccc(CCc3cccc(B4OCC(C)(C)CO4)c3)c2)OC1` showed an IC50 [1] of 3.44 µM.

With `CC1(C)OB(c2ccc(F)c(CCc3cc(B4OC(C)(C)C(C)(C)O4)ccc3F)c2)OC1(C)C` the Activity [2] was “inactive”, the viability at 13.6 µM [3] was 95.6% and the OD [4] was 0.058. For the same molecule, the OD [5] was 0.053, the Activity [6] was 0.073% and the Activity [7] was 1.54%. It also gave an Activity [8] of 0.63%, an OD [9] of 0.062 and an Activity [10] of 4.28%. The OD [11] was 0.06, the viability at 27.2 µM [12] was 93.7% and the Activity [13] was “Active”. The OD [14] was 0.051, the Activity [15] was 0.41% and the Activity [16] was 1.41%. It also gave an IC50 [1] of 0.68 µM, an OD [17] of 0.051 and an OD [18] of 0.052. For the same molecule, the IC50 [19] was 1.14 µM, the viability at 6.8 µM [20] was 96.1% and the Activity [21] was 2.44%. The OD [22] was 0.062, the Activity [23] was 1.43% and the OD [24] was 0.061. For the same molecule, the Activity [25] was 0.38%, the Activity [26] was “Active” and the OD [27] was 0.051.

With `CC1(C)OB(c2ccc(CCc3ccc(B4OC(C)(C)C(C)(C)O4)c4ccccc34)c3ccccc23)OC1(C)C` the IC50 [1] was 3.44 µM.

In the case of `CC1(C)OB(c2ccc(Cc3ccc(B4OC(C)(C)C(C)(C)O4)c4ccccc34)cc2)OC1(C)C`, the IC50 [1] is reported as 0.63 µM.

In the case of `CC1(C)OB(c2cc(C(=O)Oc3ccc4c(c3)OCO4)cc(-c3cc(B4OC(C)(C)C(C)(C)O4)cc(C(=O)Oc4ccc5c(c4)OCO5)c3)c2)OC1(C)C`, the IC50 [1] is reported as 1 µM.

Work on `CC1(C)OB(c2ccc(-c3ccc(B4OC(C)(C)C(C)(C)O4)c4ccccc34)c3ccccc23)OC1(C)C` yielded an IC50 [1] of 0.69 µM.

Work on `CC1(C)OB(c2cc(C(F)(F)F)ccc2CCc2ccc(C(F)(F)F)cc2B2OC(C)(C)C(C)(C)O2)OC1(C)C` yielded an IC50 [1] of 0.7 µM.

Molecule `CC1(C)OB(c2ccc(CCc3ccc(B4OC(C)(C)C(C)(C)O4)cc3)cc2)OC1(C)C` has an IC50 [1] of 0.71 µM.

For `CC1(C)OB(c2ccc(-c3ccc(B4OC(C)(C)C(C)(C)O4)cc3)cc2)OC1(C)C`, the IC50 [1] was 1.95 µM and the Activity [28] was 96%.

`CCC1(CC)OB(c2ccc(Cc3ccc(B4OC(C)(C)C(C)(C)O4)cc3)cc2)OC1(CC)CC` showed an IC50 [1] of 2.11 µM.
